Laboratory results from article PMC4488150, “Structure-Based Optimization and Biological Evaluation of Pancreatic Lipase Inhibitors as Novel Potential Antiobesity Agents” (Natural Products and Bioprospecting, 2015).
Entries after “also recorded” stand apart in the source; their conditions may differ. Blank lines part the entries; values can stand above or below the compound they belong to.

Columns and labels:
[1] = target: T1, Porcine pancreatic lipase (Sus scrofa, UniProt P00591); test: In vitro pancreatic lipase inhibitory activity (p-nitrophenyl butyrate hydrolysis); format: biochemical; conditions: for IC50: read-out: IC50 against pancreatic lipase; for pancreatic lipase inhibitory activity compared with compound A1: compared with compound A1 (best inhibitor of the first series)
T1 sequence (P00591 1-450): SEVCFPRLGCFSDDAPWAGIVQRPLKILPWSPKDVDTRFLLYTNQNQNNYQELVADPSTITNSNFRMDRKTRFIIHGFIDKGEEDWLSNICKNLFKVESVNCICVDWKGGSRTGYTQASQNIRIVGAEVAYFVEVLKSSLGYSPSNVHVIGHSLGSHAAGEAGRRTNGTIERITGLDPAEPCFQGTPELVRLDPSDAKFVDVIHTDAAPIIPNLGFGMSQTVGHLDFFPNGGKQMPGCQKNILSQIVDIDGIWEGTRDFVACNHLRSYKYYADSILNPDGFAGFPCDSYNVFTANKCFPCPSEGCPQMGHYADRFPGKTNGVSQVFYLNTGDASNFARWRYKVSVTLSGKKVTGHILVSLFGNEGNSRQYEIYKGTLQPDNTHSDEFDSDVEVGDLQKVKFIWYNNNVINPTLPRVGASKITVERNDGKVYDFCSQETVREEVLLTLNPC
Protocol: Compounds A1–A54 were then evaluated for their bioactivity to inhibit pancreatic lipase. Each test was performed in triplicate, and the IC50 values were calculated based on the amount of inhibitor required to produce 50 % inhibition compared with the DMSO vehicle control.
Porcine pancreatic lipase was used to evaluate the inhibitory activity of the monascus pigment derivatives. p-Nitrophenyl butyrate ([…]) was used as the substrate. First, an enzyme-buffer solution was prepared by adding 30 μL of lipase solution (in 10 mM morpholinepropanesulfonic acid (MOPS) and 1 mM EDTA, pH 6.8) to 850 μL of Tris buffer (100 mM Tris–HCl and 5 mM CaCl2, pH 7.0). Pigment solutions were prepared by dissolving each pigment in a mixture (1:1) of ethanol and distilled water. Subsequently, 100 μL of the pigment solution was mixed with 880 μL of the enzyme-buffer solution. Following incubation of the enzyme-pigment mixture for 15 min at 37 °C, 20 μL of the substrate solution (10 mM p-NPB in dimethyl formamide) was added. Enzymatic reactions were conducted for 15 min at 37 °C. The hydrolysis of p-NPB to p-nitrophenol was monitored at 400 nm using a spectrophotometer. One unit of the enzyme was defined as the amount required to liberate 1 μmol of p-nitrophenol under standard assay conditions.

[2] = tested on: HFD-induced C57BL/6 J obese mice; test: High-fat diet-induced obese mice (diet-induced obesity); format: in vivo; conditions: up to 400 mg/kg, data not shown
[3] = tested on: HFD-induced C57BL/6 J obese mice; test: as above; format: in vivo; conditions: for cholesterol (CHO) level / triglyceride (TG) level: blood after final dose
Protocol: Male C57BL/6 J mice were obtained from Beijing HFK Bioscience Co., Ltd. (Certificate No. SCXK 2014-0004), housed in a temperature- and humidity-controlled room with a 12-hour light/dark cycle, and allowed free access to solid food and tap water for one week prior to the experiments. All of the procedures were performed in accordance with the Institute Ethical Committee for Experimental Animal Use of the Yunnan Province and the Kunming Institute of Botany.
The kits used to determine the triglyceride (TG) and cholesterol (CHO) levels were obtained from the Zhongsheng Beikong Bioengineering Institute.
Three-week-old C57BL/6 J male mice were fed a normal diet for 1 week for acclimatization. Randomly selected mice were fed a normal diet or a 45 % fat diet. After 4 months, the body weights of the mice in the obese group were 20 % higher than those in the control group. These obese mice were randomly divided into the following three groups: the model (45 % fat diet), orlistat (45 % fat diet + orlistat) and Compound groups (45 % fat diet + compound C1). The drugs (50 mg/kg orlistat or 100 mg/kg compound C1) were intragastrically administered for 1 month. During this period, the mice were weighed once every 3 days. Following administration of the final dose, blood samples were collected via the orbital vein after ethyl ether exposure, and epididymal fat was isolated. TG and CHO levels were measured using kits. The ratio of epididymal fat to body weight represents the amount of white adipose tissue (WAT) of each mouse (normalized to the body weight).
Student’s t test was used for comparisons between groups, as indicated in Fig. 2. #p < 0.05, ## or **p < 0.01.

[4] = compound C1 100 mg/kg, 100 mg/kg

- IC50 [1]: 83 nM
SMILES: CC(C)=CC[C@@]12C=C(COC(=O)CCCCCc3ccccc3)C[C@@H]1OC2=O [Compound A1, ((1R,5S)-1-(3-methylbut-2-en-1-yl)-7-oxo-6-oxabicyclo[3.2.0]hept-2-en-3-yl)methyl-6-phenylhexanoate]

- IC50 [1]: 30 nM
SMILES: CCCCCC[C@@H](OC(=O)[C@](OC)(c1ccccc1)C(F)(F)F)C1=C[C@@]2(CC=C(C)C)C(=O)O[C@H]2C1 [Compound B1, (R)-(R)-1-((1R,5S)-1-(3-methylbut-2-en-1-yl)-7-oxo-6-oxabicyclo[3.2.0]hept-2-en-3-yl)heptyl-3,3,3-trifluoro-2-methoxy-2-phenylpropanoate]

SMILES: CCCCCCCCN(CCCCCCC)C(=O)C1=C[C@@]2(CC=C(C)C)C(=O)O[C@H]2C1 [Compound C1, (1R,5S)-N-heptyl-1-(3-methylbut-2-en-1-yl)-N-octyl-7-oxo-6-oxabicyclo[3.2.0]hept-2-ene-3-carboxamide]
- toxicity or adverse behavioral effects [2]: without toxicity or adverse behavioral effects
- IC50 [1]: 14 nM
- pancreatic lipase inhibitory activity, fold higher than that of vibralactone ([1]; relative to vibralactone): more than 3000 fold
- in vivo activity compared with orlistat ([3]; C1 100 mg/kg vs orlistat 50 mg/kg): lower activity than that of orlistat
- body weight ([3]; compound C1 100 mg/kg, 33 days, intragastric, vs HFD model group, 100 mg/kg): gradually decreased; also recorded: weight loss; also recorded: significantly low; also recorded: significantly lower
- HFD-induced obesity ([3]; compound C1 100 mg/kg, 33 days, intragastric, 100 mg/kg): significantly decreased
- cholesterol (CHO) level [3, 4]: significantly decreased
- triglyceride (TG) level [3, 4]: significantly decreased; also recorded: significantly reduced
- fat weight (epididymal white adipose tissue, normalized to body weight) ([3]; compound C1 100 mg/kg, one month, 100 mg/kg): gradually decreased; also recorded: significantly decreased

SMILES: CCCCCCCCN(CCCCCCCC)C(=O)C1=C[C@@]2(CC=C(C)C)C(=O)O[C@H]2C1 [Compound C2, (1R,5S)-1-(3-methylbut-2-en-1-yl)-N,N-dioctyl-7-oxo-6-oxabicyclo[3.2.0]hept-2-ene-3-carboxamide]
- pancreatic lipase inhibitory activity compared with compound A1 [1]: higher inhibitory activities than compound A1

SMILES: CCCCCCCN(CCCCCCC)C(=O)C1=C[C@@]2(CC=C(C)C)C(=O)O[C@H]2C1 [Compound C3, (1R,5S)-N,N-diheptyl-1-(3-methylbut-2-en-1-yl)-7-oxo-6-oxabicyclo[3.2.0]hept-2-ene-3-carboxamide]
- pancreatic lipase inhibitory activity compared with compound A1 [1]: higher inhibitory activities than compound A1

SMILES: CCCCCCCCCCC[C@@H](C[C@@H]1OC(=O)[C@H]1CCCCCC)OC(=O)[C@H](CC(C)C)NC=O [orlistat, reference compound]
- cholesterol (CHO) level ([3]; orlistat 50 mg/kg): significantly decreased
- triglyceride (TG) level ([3]; orlistat 50 mg/kg): significantly decreased
- fat weight (epididymal white adipose tissue, normalized to body weight) ([3]; orlistat 50 mg/kg, one month): gradually decreased; also recorded: significantly decreased
- body weight ([3]; orlistat 50 mg/kg, one month, intragastric): gradually decreased

- IC50 [1]: 47300 nM
SMILES: CC(C)=CC[C@@]12C=C(CO)C[C@@H]1OC2=O [vibralactone, reference compound]
